Assay results as given in patent US9566312B2, “Cyclic peptides and use as medicines” (priority 2012, dated 2017).
Like-named read-outs stand apart in the source and are kept apart here. Starred links: 1 amine or outer side, 2 acyl side, 3 side chain; linkers in the order of their positions; H or OH if unused. Non-standard residues stand in square brackets, D forms with d. Residues, ends and D or L forms follow the SMILES beside them. X10 = C[C@H](CCCOC(=O)NC1CCN(C)CC1)[C@@H](C(=O)[*:2])N(C)[*:1]; X25 = CCN1CCO[C@H](COC[C@@H](C)[C@@H](C(=O)[*:2])N(C)[*:1])C1; X22 = C[C@H](CN1CCN(C2CCC2)CC1)[C@@H](C(=O)[*:2])N(C)[*:1]; X19 = COCCN1CCN(C[C@H](C)[C@@H](C(=O)[*:2])N(C)[*:1])CC1; NMe(dihydroBmt) = CCCC[C@@H](C)[C@@H](O)[C@H](NC)C(=O)O; X21 = CCN1CCN(C[C@@H](C)[C@@H](C(=O)[*:2])N(C)[*:1])CC1; X14 = C[C@H](CN1CCN(C)CC1)[C@@H](C(=O)[*:2])N(C)[*:1]; X17 = C[C@H](COCC(C)(C)O)[C@@H](C(=O)[*:2])N(C)[*:1]; MeBmt = C/C=C/C[C@@H](C)[C@@H](O)[C@H](NC)C(=O)O; X15 = COCC(COC)[C@@H](C(=O)[*:2])N(C)[*:1]; NMeL = CN[C@@H](CC(C)C)C(=O)O; NMeV = CN[C@H](C(=O)O)C(C)C; dNMeA = CN[C@H](C)C(=O)O; Abu = CC[C@H](N)C(=O)O

What was measured:
[1] = molecular target: organic anion transporting polypeptide 1B1 (OATP1B1) (Homo sapiens (Human), UniProt Q9Y6L6); assay: OATP assay in CHO-OATP1B1 cells;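 note: inhibition of probe substrate uptake into the cells, ten minutes exposure, accumulated substrate read by fluorescence once cells were lysed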
Method: In order to determine whether the compounds of the present invention interact with hepatic transporters, experiments were carried out that compared the concentration-dependent inhibition toward the organic anion transporting polypeptide 1B1 (OATP1B1) and the multidrug resistance associated protein 2 (MRP2).
The cells were cultured in DMEM/F12 +10% FBS+2 mM Ala-Gln+1% Pen-Strep for a period of two days, and the media was changed one day post-seeding. Prior to the assay, media was aspirated and were washed −3× with HBSS+10 mM HEPES and the solution was equilibrated for 15 min in HBSS+10 mM HEPES. Solutions containing the inhibitor were prepared in HBSS+10 mM HEPES (up to 1% DMSO). […] After 10 min, the substrate or substrate/inhibitor solution was aspirated and the cells were washed 3× with HBSS+10 mM HEPES. The amount of the transported probe substrate was determined by fluorescent photometry after cell lysis, and the IC50 was derived from the concentration-response curve.

CYP3A4 = CYP3A4 (Homo sapiens (Human), UniProt P08684); assay: Time-dependent inhibition of CYP3A4; conditions: for NIM TDI kinact/Ki: probe substrate midazolam;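 for all read-outs here: Two-step in vitro assay, kobs derived from residual CYP3A4 activity versus preincubation time per concentration, then kinact and KI by nonlinear fit of kobs against concentration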
[2] = system: genotype 1b subgenomic HCV replicon in Huh7.5 cells; type: cell-based, hepatitis C virus; conditions: read-out: RPLN-1b IC50
Summary of the method: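 Replicon inhibition read as renilla luciferase signal versus DMSO controls after 72 h incubation, in Huh7.5 cells harbouring a genotype 1b subgenomic replicon; medium phenol red-free DMEM lacking G418. CC50 determined in parallel via Cell Titer-Glo.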

cyclophilin B (CypB) = cyclophilin B (CypB) (Homo sapiens (Human), UniProt P23284); assay: Inhibitor binding to cyclophilin proteins by SPR, CypB; set-up: unit not given here; conditions: 1:1 binding model
Summary of the method: (§1)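 A 1:1 model fitted to single-cycle kinetic SPR data gave association and dissociation rates and KD. Compound series injected for 1 min each at 50 μL/min, then 10 min dissociation. Running buffer HEPES pH 7.4 with NaCl, P20 and 3% DMSO; target protein was biotinylated avi-tagged cyclophilin on a CAPture surface.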

cyclophilin A (CypA) = cyclophilin A (CypA) (Homo sapiens (Human), UniProt P62937); assay: Inhibitor binding to cyclophilin proteins by SPR, CypA; set-up: unit not given here; conditions: 1:1 binding model;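 note: Single-cycle kinetics on a Biacore T200, compound injected at several concentrations for 1 min each at 50 µL/min, then 10 min dissociation, in HEPES pH 7.4 buffer with 3% DMSO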
[3] = system: peripheral blood mononuclear cells (PBMC); assay: Anti-proliferative or immunosuppressive activity, BrdU incorporation in PHA-stimulated PBMC; type: cell-based; conditions: PHA 3 μg/ml, 60 hour compound treatment; read-out: EMV PBMC IC50
Summary of the method: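 BrdU ELISA read-out of DNA synthesis in freshly isolated PBMCs (two donors, 30,000 cells/well, X-VIVO 15). T-cell proliferation triggered with phytohemagglutinin at 3 μg/ml.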

CypF = CypF (Homo sapiens (Human), UniProt P30405); assay: Inhibitor binding to cyclophilin proteins by SPR, CypF; conditions: 1:1 binding model
Summary of the method: as §1

[4] = genotype 1b replicon, 72 h incubation

Sequence of CYP3A4 (P08684 whole entry): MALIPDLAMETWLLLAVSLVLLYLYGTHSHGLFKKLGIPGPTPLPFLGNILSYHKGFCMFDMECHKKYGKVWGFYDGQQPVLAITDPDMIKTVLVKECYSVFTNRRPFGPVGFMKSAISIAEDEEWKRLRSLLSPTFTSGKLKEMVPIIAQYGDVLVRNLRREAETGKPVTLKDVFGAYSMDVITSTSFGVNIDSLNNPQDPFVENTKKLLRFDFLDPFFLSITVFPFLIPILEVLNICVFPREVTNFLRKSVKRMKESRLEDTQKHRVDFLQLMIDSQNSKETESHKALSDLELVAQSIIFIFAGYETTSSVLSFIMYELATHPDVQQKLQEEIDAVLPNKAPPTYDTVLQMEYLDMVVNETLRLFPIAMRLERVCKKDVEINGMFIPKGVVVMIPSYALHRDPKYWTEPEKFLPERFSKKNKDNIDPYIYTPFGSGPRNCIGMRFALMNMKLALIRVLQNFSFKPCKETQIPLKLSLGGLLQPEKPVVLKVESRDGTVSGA
Sequence of organic anion transporting polypeptide 1B1 (OATP1B1) (Q9Y6L6 whole entry): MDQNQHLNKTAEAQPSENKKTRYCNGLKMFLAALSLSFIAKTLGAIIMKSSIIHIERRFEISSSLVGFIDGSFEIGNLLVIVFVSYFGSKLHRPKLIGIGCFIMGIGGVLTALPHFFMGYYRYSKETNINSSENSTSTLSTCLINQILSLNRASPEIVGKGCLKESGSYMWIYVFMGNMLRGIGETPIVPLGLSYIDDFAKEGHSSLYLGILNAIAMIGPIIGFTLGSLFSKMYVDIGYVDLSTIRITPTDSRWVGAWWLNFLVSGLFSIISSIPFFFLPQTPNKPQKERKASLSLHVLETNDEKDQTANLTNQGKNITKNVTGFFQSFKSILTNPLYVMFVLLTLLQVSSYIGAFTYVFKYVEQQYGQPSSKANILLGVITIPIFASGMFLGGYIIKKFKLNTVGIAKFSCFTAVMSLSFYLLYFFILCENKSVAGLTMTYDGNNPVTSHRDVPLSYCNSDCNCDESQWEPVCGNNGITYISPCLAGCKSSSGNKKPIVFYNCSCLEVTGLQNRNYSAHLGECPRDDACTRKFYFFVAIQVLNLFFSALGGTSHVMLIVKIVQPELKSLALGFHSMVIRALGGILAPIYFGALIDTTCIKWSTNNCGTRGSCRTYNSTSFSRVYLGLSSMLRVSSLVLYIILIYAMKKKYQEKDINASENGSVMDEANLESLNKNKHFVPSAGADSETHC
Sequence of CypF (P30405 30-207): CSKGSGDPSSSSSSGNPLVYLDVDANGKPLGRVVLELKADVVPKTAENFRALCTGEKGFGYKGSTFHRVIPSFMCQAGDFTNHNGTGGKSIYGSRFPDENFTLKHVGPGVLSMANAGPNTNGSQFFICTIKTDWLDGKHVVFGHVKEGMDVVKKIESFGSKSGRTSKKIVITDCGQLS
Sequence of cyclophilin A (CypA) (P62937 whole entry): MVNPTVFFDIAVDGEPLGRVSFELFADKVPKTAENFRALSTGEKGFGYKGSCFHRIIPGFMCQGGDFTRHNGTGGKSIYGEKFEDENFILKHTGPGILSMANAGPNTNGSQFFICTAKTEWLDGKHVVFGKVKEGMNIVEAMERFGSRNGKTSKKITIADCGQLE
Sequence of cyclophilin B (CypB) (P23284 34-216): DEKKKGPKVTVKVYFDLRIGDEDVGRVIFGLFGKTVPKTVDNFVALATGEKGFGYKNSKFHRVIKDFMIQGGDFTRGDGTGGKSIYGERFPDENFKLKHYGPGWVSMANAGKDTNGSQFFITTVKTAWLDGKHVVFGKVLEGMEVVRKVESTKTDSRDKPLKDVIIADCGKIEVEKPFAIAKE

Structure (SMILES) | IC50 [1] [µM] | Ki (CYP3A4) [µM] | IC50 [2, 4] [µM] | CypB Kd (cyclophilin B (CypB)) | CypA Kd (cyclophilin A (CypA)) | IC50 [3] [µM] | CypF Kd (CypF) [µM] | NIM TDI kinact/Ki (CYP3A4) [M⁻¹ s⁻¹] | KI (inactivation) (CYP3A4) [µM] | IC50 [2] [µM]
C/C=C/C[C@@H](C)[C@@H](O)[C@H]1C(=O)N[C@@H](CC)C(=O)N(C)[C@H](C)C(=O)N(C)[C@@H](C(COC)COC)C(=O)N[C@@H](C(C)C)C(=O)N(C)[C@@H](CC(C)C)C(=O)N[C@@H](C)C(=O)N[C@H](C)C(=O)N(C)[C@@H](CC(C)C)C(=O)N(C)[C@@H](CC(C)C)C(=O)N(C)[C@@H](C(C)C)C(=O)N1C [Compound 2.11, 3-[D-Ala]-4-[(S)-4-methoxy-3-(methoxymethyl)-2-(methylamino)butanoyl]-cyclosporin] (cyclo(A[dA][NMeL][NMeL][NMeV][MeBmt][Abu][dNMeA][X15]V[NMeL])) | 2.6 | > 50 | 0.058 | 1.3 | 1.9 | 7.9 | 0.0012 | – | – | –
C/C=C/C[C@@H](C)[C@@H](O)[C@H]1C(=O)N[C@@H](CC)C(=O)N(C)[C@H](C)C(=O)N(C)[C@@H]([C@@H](C)CN2CCN(CCOC)CC2)C(=O)N[C@@H](C(C)C)C(=O)N(C)[C@@H](CC(C)C)C(=O)N[C@@H](C)C(=O)N[C@H](C)C(=O)N(C)[C@@H](CC(C)C)C(=O)N(C)[C@@H](CC(C)C)C(=O)N(C)[C@@H](C(C)C)C(=O)N1C [Compound 2.17.4, 3-[D-Ala]-4[(2S,3S)-2-Amino-4-[4-(2-methoxy-ethyl)-piperazin-1-yl]-3-methyl-butanoyl]-cyclosporin] (cyclo(A[dA][NMeL][NMeL][NMeV][MeBmt][Abu][dNMeA][X19]V[NMeL])) | 3.2 | > 50 | 0.031 | 0.5 | 0.6 | 2.7 | 0.0003 | – | – | –
C/C=C/C[C@@H](C)[C@@H](O)[C@H]1C(=O)N[C@@H](CC)C(=O)N(C)[C@H](C)C(=O)N(C)[C@@H]([C@H](C)CCCOC(=O)NC2CCN(C)CC2)C(=O)N[C@@H](C(C)C)C(=O)N(C)[C@@H](CC(C)C)C(=O)N[C@@H](C)C(=O)N[C@H](C)C(=O)N(C)[C@@H](CC(C)C)C(=O)N(C)[C@@H](CC(C)C)C(=O)N(C)[C@@H](C(C)C)C(=O)N1C [Compound 2.19.8, 3-[D-Ala]-4-[(2S,3R)-3-methyl-2-(methylamino)-6-(((1-methylpiperidin-4-yl)carbamoyl)oxy)hexanoyl]-cyclosporin] (cyclo(A[dA][NMeL][NMeL][NMeV][MeBmt][Abu][dNMeA][X10]V[NMeL])) | 7.8 | > 50 | – | 0.4 | 0.8 | – | 0.0004 | – | – | –
C/C=C/C[C@@H](C)[C@@H](O)[C@H]1C(=O)N[C@@H](CC)C(=O)N(C)[C@H](C)C(=O)N(C)[C@@H]([C@H](C)CN2CCN(CC)CC2)C(=O)N[C@@H](C(C)C)C(=O)N(C)[C@@H](CC(C)C)C(=O)N[C@@H](C)C(=O)N[C@H](C)C(=O)N(C)[C@@H](CC(C)C)C(=O)N(C)[C@@H](CC(C)C)C(=O)N(C)[C@@H](C(C)C)C(=O)N1C [Compound 2.5.13, 3-[D-Ala]-4[(2S,3R)-2-Amino-4-(4-ethyl-piperazin-1-yl)-butanoyl]-cyclosporin] (cyclo(A[dA][NMeL][NMeL][NMeV][MeBmt][Abu][dNMeA][X21]V[NMeL])) | 4.56 | > 50 | 0.05 | 0.8 | 0.9 | 5.3 | 0.0005 | – | – | –
C/C=C/C[C@@H](C)[C@@H](O)[C@H]1C(=O)N[C@@H](CC)C(=O)N(C)[C@H](C)C(=O)N(C)[C@@H]([C@H](C)CN2CCN(C)CC2)C(=O)N[C@@H](C(C)C)C(=O)N(C)[C@@H](CC(C)C)C(=O)N[C@@H](C)C(=O)N[C@H](C)C(=O)N(C)[C@@H](CC(C)C)C(=O)N(C)[C@@H](CC(C)C)C(=O)N(C)[C@@H](C(C)C)C(=O)N1C [Compound 2.5.29, 3-[D-Ala]-4-[(2S,3R)-3-methyl-2-(methylamino)-4-(4-methylpiperazin-1-yl)butanoyl]-cyclosporin] (cyclo(A[dA][NMeL][NMeL][NMeV][MeBmt][Abu][dNMeA][X14]V[NMeL])) | 7.9 | > 50 | 0.056 | 0.7 | 1.5 | 12.2 | 0.0006 | – | – | –
C/C=C/C[C@@H](C)[C@@H](O)[C@H]1C(=O)N[C@@H](CC)C(=O)N(C)[C@H](CCCN2CCOCC2)C(=O)N(C)[C@@H]([C@H](C)CS(C)(=O)=O)C(=O)N[C@@H](C(C)C)C(=O)N(C)[C@@H](CC(C)C)C(=O)N[C@@H](C)C(=O)N[C@H](C)C(=O)N(C)[C@@H](CC(C)C)C(=O)N(C)[C@@H](CC(C)C)C(=O)N(C)[C@@H](C(C)C)C(=O)N1C (stereo in doubt) [Compound 3.4.2, 3-[(R)-2-(methylamino)-5-morpholinopentanoyl]-4-[(2S,3S)-3-methyl-2-(methylamino)-4-(methylsulfonyl)butanoyl]-cyclosporin] | – | > 50 | 1.3 | 4.4 | 8.7 | 13.8 | 0.005 | – | – | –
C/C=C/C[C@@H](C)[C@@H](O)[C@H]1C(=O)N[C@@H](CC)C(=O)N(C)[C@H](C)C(=O)N(C)[C@@H]([C@H](C)COCC(C)(C)O)C(=O)N[C@@H](C(C)C)C(=O)N(C)[C@@H](CC(C)C)C(=O)N[C@@H](C)C(=O)N[C@H](C)C(=O)N(C)[C@@H](CC(C)C)C(=O)N(C)[C@@H](CC(C)C)C(=O)N(C)[C@@H](C(C)C)C(=O)N1C [Compound 2.7, 3-[D-Ala]-4-[(2S,3S)-4-(2-hydroxy-2-methylpropoxy)-3-methyl-2-(methylamino)butanoyl]-cyclosporin] (cyclo(A[dA][NMeL][NMeL][NMeV][MeBmt][Abu][dNMeA][X17]V[NMeL])) | 1.8 | – | – | 1.2 | 2.5 | – | 0.0009 | 25 | – | –
CCCC[C@@H](C)[C@@H](O)[C@H]1C(=O)N[C@@H](CC)C(=O)N(C)[C@H](C)C(=O)N(C)[C@@H]([C@H](C)CN2CCN(C3CCC3)CC2)C(=O)N[C@@H](C(C)C)C(=O)N(C)[C@@H](CC(C)C)C(=O)N[C@@H](C)C(=O)N[C@H](C)C(=O)N(C)[C@@H](CC(C)C)C(=O)N(C)[C@@H](CC(C)C)C(=O)N(C)[C@@H](C(C)C)C(=O)N1C [Compound 2.5.15, 1-dihydro-3-[D-Ala]-4[(2S,3R)-2-Amino-4-(4-cyclobutyl-piperazin-1-yl)-butanoyl]-cyclosporin] (cyclo([NMe(dihydroBmt)][Abu][dNMeA][X22]V[NMeL]A[dA][NMeL][NMeL][NMeV])) | – | – | – | 0.7 | 1.4 | 7.6 | 0.0006 | – | > 50 | 0.018
C/C=C/C[C@@H](C)[C@@H](O)[C@H]1C(=O)N[C@@H](CC)C(=O)N(C)[C@H](C)C(=O)N(C)[C@@H]([C@H](C)COC[C@@H]2CN(CC)CCO2)C(=O)N[C@@H](C(C)C)C(=O)N(C)[C@@H](CC(C)C)C(=O)N[C@@H](C)C(=O)N[C@H](C)C(=O)N(C)[C@@H](CC(C)C)C(=O)N(C)[C@@H](CC(C)C)C(=O)N(C)[C@@H](C(C)C)C(=O)N1C [Compound 2.20.1, 3-[D-Ala]-4-[(2S,3S)-4-(((S)-4-ethylmorpholin-2-yl)methoxy)-3-methyl-2-(methylamino)butanoyl]-cyclosporin] (cyclo(A[dA][NMeL][NMeL][NMeV][MeBmt][Abu][dNMeA][X25]V[NMeL])) | 1.9 | – | – | 0.7 | 0.7 | – | 0.0005 | 6.7 | – | –
